This passage reports IC50 results from patent US10968203B2, “Pyrimidinyl-pyridyloxy-naphthyl compounds and methods of treating IRE1-related diseases and disorders” (Genentech, Inc., priority 2017, dated 2021).

Where a name gives a salt, the structure may show the parent alone.

One assay has as its system XBP1s-luc 293 LUC. Nature of the assay: cellular PD assay, XBP1s-LUC reporter (Example 903). It is filed as cell-based. The note with it: Table 1; read-out: XBP1s-luc 293 LUC (IC50). The procedure, abridged: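 A luciferase fusion, in frame and expressed only when the XBP1 transcript is spliced, served as the readout of cellular IRE1α activity in an XBP1-Luc reporter line.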
As a reminder, the IC50 is the concentration needed to halve the response being measured. `CCCS(=O)(=O)Nc1cccc2c(Oc3ncc(CC)cc3-c3ccnc(N[C@H]4CCCNC4)n3)c(C)ccc12` [Example 259, (S)—N-(5-((5-ethyl-3-(2-(piperidin-3-ylamino)pyrimidin-4-yl)pyridin-2-yl)oxy)-6-methylnaphthalen-1-yl)propane-1-sulfonamide]: the half-inhibitory concentration (IC50) came to 0.361 µM.

As to `Cc1cc(NS(=O)(=O)Cc2ccccc2)c2ccccc2c1Oc1ncccc1-c1ccnc(N[C@H]2CC[C@H](N)CC2)n1` [Example 110, N-(4-((3-(2-(((1r,4r)-4-aminocyclohexyl)amino)pyrimidin-4-yl)pyridin-2-yl)oxy)-3-methylnaphthalen-1-yl)-1-phenylmethanesulfonamide hydrochloride], the IC50 was 0.119 µM.

On to `Cc1ccc2c(NC(=O)N3CCCCC3)cccc2c1Oc1ncccc1-c1ccnc(N[C@H]2CCCNC2)n1` [Example 116, (S)—N-(6-Methyl-5-((3-(2-(piperidin-3-ylamino)pyrimidin-4-yl)pyridin-2-yl)oxy)naphthalen-1-yl)piperidine-1-carboxamide hydrochloride], for which the concentration for half-maximal inhibition (IC50) was determined as 0.43 µM.

In the case of `Cc1ccc2c(N3CCCC(C)C3=O)cccc2c1Oc1ncccc1-c1ccnc(N[C@H]2CCCNC2)n1` (mixture of isomers) [Example 354, 3-Methyl-1-(6-methyl-5-((3-(2-((S)-piperidin-3-ylamino)pyrimidin-4-yl)pyridin-2-yl)oxy)naphthalen-1-yl)piperidin-2-one], the IC50 was determined as 0.318 µM.

As to `Cc1ccc2c(NC(=O)CC(F)(F)F)cccc2c1Oc1ncccc1-c1ccnc(N[C@H]2CCCNC2)n1` [Example 252, (S)-3,3,3-Trifluoro-N-(6-methyl-5-(3-(2-(piperidin-3-ylamino)pyrimidin-4-yl)pyridin-2-yloxy)naphthalen-1-yl)propanamide], the IC50 came out at 0.134 µM.

Take `Cc1ccc2c(NS(=O)(=O)CC(F)(F)F)cccc2c1Oc1ncccc1-c1ccnc(N[C@H]2CCCNC2)n1` [Example 122, (S)-2,2,2-Trifluoro-N-(6-methyl-5-((3-(2-(piperidin-3-ylamino)pyrimidin-4-yl)pyridin-2-yl)oxy)naphthalen-1-yl)ethane-1-sulfonamide hydrochloride]: the IC50 came to 0.105 µM.

Turning to `Cc1ccc2c(NS(=O)(=O)CC(F)(F)F)c(F)ccc2c1Oc1ncccc1-c1ccnc(N[C@@H]2CNC[C@H](C)C2)n1` [Example 375, 2,2,2-Trifluoro-N-(2-fluoro-6-methyl-5-((3-(2-(((3S,5R)-5-methylpiperidin-3-yl)amino)pyrimidin-4-yl)pyridin-2-yl)oxy)naphthalen-1-yl)ethanesulfonamide], the half-maximal inhibitory concentration (IC50) was 0.0132 µM.

Consider `Cc1ccc2c(NS(=O)(=O)Cc3ccc(Cl)cc3)c(F)ccc2c1Oc1ncccc1-c1ccnc(N[C@H]2CCCNC2)n1` [Example 209, (S)-1-(4-Chlorophenyl)-N-(2-fluoro-6-methyl-5-((3-(2-(piperidin-3-ylamino)pyrimidin-4-yl)pyridin-2-yl)oxy)naphthalen-1-yl)methanesulfonamide], for which the half-inhibitory concentration (IC50) came out at 0.00804 µM.

For `Cc1ccc2c(NS(=O)(=O)Cc3ccccc3)cccc2c1Oc1ncccc1-c1ccnc(NC2CNCCC2F)n1` (centres unmarked) [Example 162, N-(5-((3-(2-((4-Fluoropiperidin-3-yl)amino)pyrimidin-4-yl)pyridin-2-yl)oxy)-6-methylnaphthalen-1-yl)-1-phenylmethanesulfonamide], the IC50 is 0.067 µM.

For the compound `Cc1ccc2c(NC(=O)CC3CC3)cccc2c1Oc1ncccc1-c1ccnc(N[C@H]2CCCNC2)n1` [Example 191, (S)-2-Cyclopropyl-N-(6-methyl-5-((3-(2-(piperidin-3-ylamino)pyrimidin-4-yl)pyridin-2-yl)oxy)naphthalen-1-yl)acetamide], the IC50 was 0.234 µM.

For the compound `COCCS(=O)(=O)Nc1c(F)ccc2c(Oc3ncccc3-c3ccnc(N[C@H]4CCCNC4)n3)c(C)ccc12` [Example 185, (S)—N-(2-Fluoro-6-methyl-5-((3-(2-(piperidin-3-ylamino)pyrimidin-4-yl)pyridin-2-yl)oxy)naphthalen-1-yl)-2-methoxyethanesulfonamide], the IC50 worked out at 0.0735 µM.

Regarding `Cc1ccc2c(NC(C)c3cscn3)cccc2c1Oc1ncccc1-c1ccnc(N[C@H]2CCCNC2)n1` (single isomer, unassigned) [Example 295], the IC50 is 0.209 µM.

In the case of `Cc1nc(CNc2cccc3c(Oc4ncccc4-c4ccnc(N[C@H]5CCCNC5)n4)c(C)ccc23)no1` [Example 320, 4-[2-[[2-Methyl-5-[(5-methyl-1,2,4-oxadiazol-3-yl)methylamino]-1-naphthyl]oxy]-3-pyridyl]-N-[(3S)-3-piperidyl]pyrimidin-2-amine], the IC50 is 0.74 µM.

Turning to `Cc1ccc2c(NC(=O)CC(C)(C)C)c(F)ccc2c1Oc1ncccc1-c1ccnc(N[C@@H]2CNC[C@@H](F)C2)n1` (single isomer, unassigned) [Example 322], the IC50 was 0.0407 µM.

Turning to `Cc1ccc2c(NS(=O)(=O)Cc3ccc(Cl)cc3)cccc2c1Oc1ncccc1-c1ccnc(N[C@H]2CCCNC2)n1` [Example 143, (S)-1-(4-Chlorophenyl)-N-(6-methyl-5-((3-(2-(piperidin-3-ylamino)pyrimidin-4-yl)pyridin-2-yl)oxy)naphthalen-1-yl)methanesulfonamide], the IC50 was determined as 0.017 µM.

Consider `Cc1ccc2c(NC(=O)CC3(C)CCCC3)cccc2c1Oc1ncccc1-c1ccnc(N[C@H]2CCCNC2)n1` [Example 267, (S)—N-(6-Methyl-5-((3-(2-(piperidin-3-ylamino)pyrimidin-4-yl)pyridin-2-yl)oxy)naphthalen-1-yl)-2-(1-methylcyclopentyl)acetamide], for which the half-inhibitory concentration (IC50) came out at 0.162 µM.

`Cc1ccc2c(NCCc3cscn3)cccc2c1Oc1ncccc1-c1ccnc(N[C@H]2CCCNC2)n1` [Example 260, (S)-4-(2-((2-Methyl-5-((2-(thiazol-4-yl)ethyl)amino)naphthalen-1-yl)oxy)pyridin-3-yl)-N-(piperidin-3-yl)pyrimidin-2-amine]: the IC50 is 0.103 µM.

`Cc1ccc2c(Nc3cc(C)n(C)n3)cccc2c1Oc1ncccc1-c1ccnc(N[C@H]2CCCNC2)n1` [Example 258, (S)-4-(2-((5-((1,5-Dimethyl-1H-pyrazol-3-yl)amino)-2-methylnaphthalen-1-yl)oxy)pyridin-3-yl)-N-(piperidin-3-yl)pyrimidin-2-amine]: the IC50 amounted to 0.419 µM.

Take `CCCS(=O)(=O)Nc1cccc2c(Oc3ncccc3-c3ccnc(N[C@@H]4CNCC[C@H]4C)n3)c(C)ccc12` (single isomer, unassigned) [Example 169]: the 50% inhibitory concentration (IC50) is 0.121 µM.

On to `Cc1ccc2c(NC(=O)C3(C)CC3)cccc2c1Oc1ncccc1-c1ccnc(N[C@H]2CCCNC2)n1` [Example 154, (S)-1-Methyl-N-(6-methyl-5-((3-(2-(piperidin-3-ylamino)pyrimidin-4-yl)pyridin-2-yl)oxy)naphthalen-1-yl)cyclopropane-1-carboxamide], for which the IC50 amounted to 0.239 µM.

For the compound `CCCS(=O)(=O)Nc1cccc2c(Oc3ncccc3-c3ccnc(N[C@H]4CCCNC4)n3)c(C)ccc12` [Example 104, (S)—N-(6-Methyl-5-(3-(2-(piperidin-3-ylamino)pyrimidin-4-yl)pyridin-2-yloxy)naphthalen-1-yl)propane-1-sulfonamide hydrochloride], the IC50 is 0.131 µM.

Turning to `CCCS(=O)(=O)Nc1c(F)ccc2c(Oc3ncccc3-c3ccnc(N[C@@H]4CNC[C@@H](F)C4)n3)c(C)ccc12` (single isomer, unassigned) [Example 328], the IC50 stood at 0.0152 µM.

Consider `Cc1ccc2c(NS(=O)(=O)Cc3ccc(C(F)F)cc3)cccc2c1Oc1ncccc1-c1ccnc(N[C@H]2CCCNC2)n1` [Example 160, (S)-1-(4-(Difluoromethyl)phenyl)-N-(6-methyl-5-((3-(2-(piperidin-3-ylamino)pyrimidin-4-yl)pyridin-2-yl)oxy)naphthalen-1-yl)methanesulfonamide], for which the IC50 worked out at 0.013 µM.

Regarding `Cc1ccc2c(NCc3ccn(C)n3)cccc2c1Oc1ncccc1-c1ccnc(N[C@H]2CCCNC2)n1` [Example 262, (S)-4-(2-((2-Methyl-5-(((1-methyl-1H-pyrazol-3-yl)methyl)amino)naphthalen-1-yl)oxy)pyridin-3-yl)-N-(piperidin-3-yl)pyrimidin-2-amine], the IC50 turned out to be 0.171 µM.

The same assay, now with this note: Table 2; read-out: XBP1s-luc 293 LUC (IC50).
For the compound `Cc1cc(CS(=O)(=O)Nc2c(F)ccc3c(Oc4ncccc4-c4ccnc(N[C@H]5CCCNC5)n4)c(C)ccc23)no1` [Example 412, (S)—N-(2-Fluoro-6-methyl-5-((3-(2-(piperidin-3-ylamino)pyrimidin-4-yl)pyridin-2-yl)oxy)naphthalen-1-yl)-1-(5-methylisoxazol-3-yl)methanesulfonamide hydrochloride], the IC50 was 0.007 µM.

`Cc1c(F)c(NS(=O)(=O)CCC(F)(F)F)c2ccccc2c1Oc1ncccc1-c1ccnc(N[C@H]2CC[C@H](N)CC2)n1` [Example 483, N-(4-((3-(2-(((1r,4r)-4-Aminocyclohexyl)amino)pyrimidin-4-yl)pyridin-2-yl)oxy)-2-fluoro-3-methylnaphthalen-1-yl)-3,3,3-trifluoropropane-1-sulfonamide]: the IC50 turned out to be 0.146 µM.

With `Cc1ccc2c(NS(=O)(=O)Cc3ccc(C#N)cc3)c(F)ccc2c1Oc1ncccc1-c1ccnc(N[C@H]2CCCNC2)n1` [Example 426, (S)-1-(4-Cyanophenyl)-N-(2-fluoro-6-methyl-5-((3-(2-(piperidin-3-ylamino)pyrimidin-4-yl)pyridin-2-yl)oxy)naphthalen-1-yl)methanesulfonamide hydrochloride], the IC50 is 0.005 µM.

As to `Cc1ccc2c(NS(=O)(=O)Cc3ccn(C)n3)c(F)ccc2c1Oc1ncccc1-c1ccnc(N[C@H]2CCCNC2)n1` [Example 449, N-[2-Fluoro-6-methyl-5-[[3-[2-[[(3S)-3-piperidyl]amino]pyrimidin-4-yl]-2-pyridyl]oxy]-1-naphthyl]-1-(1-methylpyrazol-3-yl)methanesulfonamide hydrochloride], the IC50 worked out at 0.025 µM.

Consider `CO[C@H](C)CS(=O)(=O)Nc1c(F)ccc2c(Oc3ncccc3-c3ccnc(N[C@H]4CCCNC4)n3)c(C)ccc12` (single isomer, unassigned) [Example 394, hydrochloride], for which the IC50 came to 0.028 µM.
